In patent US4119629A, “Certain azaphenoxathiin compounds” (priority 1977, dated 1978):
Where two headings read alike, the source gives them in different places.

Legend:
[1] = Toxicity, survival time after im injection in DMSO; assay type: in vivo, mice
Text: The following represents initial test observations for one of the above identified compounds.
Table of Toxicity Data for
1,5-bis(thiophenyl)-2-nitrobenzene* (2e)
Animal** (mg/kg im DMSO) Time (Days)
**All mice were tail-coded.
***Sacrificed at the end of 14 days.

[2] = assay type: in vivo, mice; settings: 50 mg/kg
Text: The following table illustrates utility of the compounds of the present invention as weight control agents.
Table of Weight Control Observed
With 1,5-bis(thiophenyl)-2-nitrobenzene
Animal (mg/kg) (grams) Date

[3] = Effect on body temp., heart rate, and respiration in rats; assay type: in vivo; settings: 100 mg/kg i.p.
Protocol: TABLE OF EFFECT OF 7-CHLORO-1-AZAPHENOXATHIIN 100 MG/KG I.P. ON
BODY TEMP., HEART RATE, AND RESPIRATION IN RATS

[4] = Hexobarbital sleeping time potentiation; assay type: in vivo; settings: control 58.5
Protocol: (§1) Further, the action of the drug at 200 mg/kg in the spontaneous motor activity test tends to reverse with greater activity observed (47%). An additional set of data was also acquired for this compound which was barbiturate induced sleeping time potentiation. […] Thus, compounds that may be prepared in accordance with Equation 3 above are: […]
(§2) Table of Barbiturate Sleeping Time Potentiation With
(§3) 7-Chloro-1-Azaphenoxathiin
Hexobarbital Sleeping Time Potentiation
(§4) Dose (mg/kg) Mean (min) SE (min)

[5] = Barbital sleeping time potentiation; assay type: in vivo; settings: control 125.4
Protocol: as §1, §2, §3, §4
Barbital Sleeping Time Potentiation

[6] = Spontaneous and forced motor activity tests; assay type: in vivo
Protocol: as §1

[7] = Barbiturate induced sleeping time potentiation; assay type: in vivo; settings: in all cases
Protocol: as §1

[8] = LD50 studies of 7-chloro-1-azaphenoxathiin; assay type: in vivo
Text: Table of LD50 Studies of 7-chloro-1-azaphenoxathiin
Test Animal Survival Time
Group* Dose (mg/kg) (Days)
*All animals were tail-coded
**LD50; dependent on the toleration of the animal for this drug

[9] = Strychnine anticonvulsant study; assay type: in vivo; settings: for Average Onset Time: saline control 3.10
Text: TABLE OF STRYCHNINE ANTICONVULSANT STUDY
WITH 7-NITRO-1-AZAPHENOXATHIIN
Test Group Time (min) Deviation Error
______________________________________

[10] = Preliminary toxicity testing of 7-nitro-1-azaphenoxathiin
Protocol: These tests were run simultaneously using chloropromazine as a control. This compound was tested at doses of 50, 100 and 200 mg/kg.

O=[N+]([O-])c1ccc(Sc2ccccc2)cc1Sc1ccccc1 [1,5-bis(thiophenyl)-2-nitrobenzene]
death resulting from decreased CNS activity [1]: death at higher doses | Weight ([2]; animal #5, 7/16/77): 16.0 grams | Weight ([2]; animal #5, 7/17/77): 15.8 grams | Weight ([2]; animal #5, 7/18/77): 16.0 grams | Weight ([2]; animal #5, 7/19/77): 16.0 grams | Weight ([2]; animal #5, 7/20/77): 16.0 grams | Weight ([2]; animal #5, 7/21/77): 16.0 grams

Clc1ccc2c(c1)Oc1cccnc1S2 [7-chloro-1-azaphenoxathiin]
H.R. ([3]; time 0, N 5): 331.2 Beats/Min | Resp ([3]; time 0, N 5): 120.8 Breath/Min | Temp ([3]; time 0, N 5): 38.5 °C | H.R. ([3]; time 30, N 4): 314.0 Beats/Min | H.R. Δ From Veh ([3]; time 30, N 4): -34.0 Beats/Min | Resp ([3]; time 30, N 4): 101.2 Breath/Min | Resp Δ From Veh ([3]; time 30, N 4): -33.1 Breath/Min | Temp ([3]; time 30, N 4): 37.6 °C | Temp Δ From Veh ([3]; time 30, N 4): -0.4 °C | H.R. ([3]; time 60, N 4): 288.0 Beats/Min | H.R. Δ From Veh ([3]; time 60, N 4): -36.0 Beats/Min | Resp ([3]; time 60, N 4): 79.7 Breath/Min | Resp Δ From Veh ([3]; time 60, N 4): -65.9 Breath/Min | Temp ([3]; time 60, N 4): 36.8 °C | Temp Δ From Veh ([3]; time 60, N 4): -2.4 °C | H.R. ([3]; time 120, N 4): 273.0 Beats/Min | H.R. Δ From Veh ([3]; time 120, N 4): -55.0 Beats/Min | Resp ([3]; time 120, N 4): 70.0 Breath/Min | Resp Δ From Veh ([3]; time 120, N 4): -49.2 Breath/Min | Temp ([3]; time 120, N 4): 35.8 °C | Temp Δ From Veh ([3]; time 120, N 4): -2.4 °C | H.R. ([3]; time 180, N 4): 270.0 Beats/Min | H.R. Δ From Veh ([3]; time 180, N 4): -66.0 Beats/Min | Resp ([3]; time 180, N 4): 78.2 Breath/Min | Resp Δ From Veh ([3]; time 180, N 4): -41.8 Breath/Min | Temp ([3]; time 180, N 4): 35.4 °C | Temp Δ From Veh ([3]; time 180, N 4): -3.4 °C | H.R. ([3]; time 240, N 4): 289.0 Beats/Min | H.R. Δ From Veh ([3]; time 240, N 4): -51.0 Beats/Min | Resp ([3]; time 240, N 4): 82.3 Breath/Min | Resp Δ From Veh ([3]; time 240, N 4): -33.0 Breath/Min | Temp ([3]; time 240, N 4): 35.0 °C | Temp Δ From Veh ([3]; time 240, N 4): -3.6 °C | Hexobarbital Sleeping Time, Mean ([4]; 25 mg/kg): 79.8 min | Hexobarbital Sleeping Time, Mean ([4]; 50 mg/kg, p<0.05): 81.9 min | Hexobarbital Sleeping Time, Mean ([4]; 100 mg/kg, p<0.05): 104.4 min | Barbital Sleeping Time, Mean ([5]; 25 mg/kg): 120.6 min | Barbital Sleeping Time, Mean ([5]; 50 mg/kg): 155.1 min | Barbital Sleeping Time, Mean ([5]; 100 mg/kg): 179.5 min | greater activity observed in the spontaneous motor activity test ([6]; 200 mg/kg, action tends to reverse): 47% | potency in both spontaneous and forced motor activity tests ([6]; compared with 7-nitro-1-azaphenoxathiin): somewhat more potent than the former | barbiturate induced sleeping times [7]: prolongation of barbiturate induced sleeping times | Survival Time ([8]; 50 mg/kg, group 1, 14-day test period): 14 days | Survival Time ([8]; 100 mg/kg, group 2, 14-day test period): 14 days | Survival Time ([8]; 250 mg/kg, group 3, 14-day test period): 14 days | Survival Time ([8]; 500 mg/kg, group 4, 14-day test period): 14 days | survival of the 14-day test period ([8]; 750 mg/kg): several lived the 14-day test period | Survival Time ([8]; 750 mg/kg, group 5, LD50, dependent on the toleration of the animal): 0 to 14 days | Survival Time ([8]; 1,000 mg/kg, group 6): 0 days | Survival Time ([8]; 1,500 mg/kg, group 7): 0 days | LD50 ([8]; in vivo): ~750 mg/kg | tolerability ([8]; test animals): generally well tolerated

O=[N+]([O-])c1ccc2c(c1)Oc1cccnc1S2 [7-nitro-1-azaphenoxathiin]
activity as an anticonvulsant [9]: essentially no activity | Average Onset Time ([9]; 50 mg/kg): 3.21 min | Average Onset Time ([9]; 100 mg/kg): 3.06 min | Average Onset Time ([9]; 200 mg/kg): 3.06 min | toxicity [10]: surprisingly low toxicity
